According to PubChem BioAssay (NCI):
Values joined by “and” are separate entries in the source; they are usually repeats but may differ in a detail not shown here. Identical values can stand only once.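 Interpolation was linear, between the two tested concentrations surrounding the appropriate level; five concentrations were tested over 48 hours in 96-well plates. Here, GI50 denotes the concentration required for 50% inhibition of growth. TGI marks complete inhibition of growth.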

Experiments:
Experiment in all cases: growth of human tumour cells (NCI), 48 h
HCT-15 colon = system: HCT-15 colon
LOX IMVI melanoma = system: LOX IMVI melanoma
IGROV1 ovarian = system: IGROV1 ovarian
T-47D breast = system: T-47D breast
UO-31 renal = system: UO-31 renal
PC-3 prostate = system: PC-3 prostate
KM12 colon = system: KM12 colon
OVCAR-8 ovarian = system: OVCAR-8 ovarian

| Structure (SMILES) | GI50 (HCT-15 colon) | TGI (HCT-15 colon) | GI50 (LOX IMVI melanoma) | TGI (LOX IMVI melanoma) [µM] | GI50 (IGROV1 ovarian) | TGI (IGROV1 ovarian) | GI50 (T-47D breast) | TGI (T-47D breast) [µM] | GI50 (UO-31 renal) | TGI (UO-31 renal) | GI50 (PC-3 prostate) | TGI (PC-3 prostate) | GI50 (KM12 colon) | TGI (KM12 colon) | GI50 (OVCAR-8 ovarian) | TGI (OVCAR-8 ovarian) [µM] |
| --- | --- | --- | --- | --- | --- | --- | --- | --- | --- | --- | --- | --- | --- | --- | --- | --- |
| N#Cc1ccc(N2Cc3cc(Cl)ccc3OC3=C2C(=O)N(Cc2ccc(F)cc2)C3=O)cc1 | 0.543 µM | 1.43 µM | 0.453 µM | 0.908 | 0.804 µM | 2.14 µM | 0.502 µM | 1.18 | 0.436 µM | 0.868 µM | 0.8 µM | 2.5 µM | 1.83 µM | 6.59 µM | 1.43 µM | 3.12 |
| Cc1cc(N2CCN(C)CC2)nc(N(CCNc2ccnc3cc(Cl)ccc23)Cc2ccco2)n1 | 2.69 µM | 10.9 µM | 1.77 µM | 3.56 | 2.91 µM | 12.2 µM | 2.07 µM | 6.41 | 2.66 µM | 11.9 µM | 3.7 µM | 13.8 µM | 3.48 µM | 13.6 µM | 5.33 µM | 19.8 |
| O=C(O)CC1C(=O)OC2C3COC(=O)c4cc(O)c(O)c(O)c4-c4c(cc(O)c(O)c4O)C(=O)OC2C(OC(=O)c2cc(O)c(O)c4c2C1C(O)C(=O)O4)C(OC(=O)c1cc(O)c(O)c(O)c1)O3 (centres undefined) |  | > 100 µM |  | 31.5 |  | > 100 µM |  | > 100 |  | > 100 µM |  | > 100 µM |  | 42.6 µM |  | 67.2 |
| O=C(NC1CCNCC1)c1[nH]ncc1NC(=O)c1c(Cl)cccc1Cl | 9.83 µM and 9.93 µM | > 100 µM | 0.281 µM and 0.261 µM | > 100 | 0.681 µM and 0.362 µM | > 55.2 µM | 1.18 µM and 1.01 µM | > 100 | 16.7 µM and > 7.2 µM | > 76.6 µM | 0.332 µM and 0.323 µM | 5.01 µM and > 10 µM | 0.297 µM and 0.305 µM | 1.66 µM and > 10 µM | 0.659 µM and 0.66 µM | > 100 |
| CCCCCCCCCCCCNC(=O)[C@H]1CSC(c2cc(Br)cs2)N1 (some centres undefined) | 1.03 µM | 2.38 µM | 0.797 µM | 1.56 | 1 µM | 2.19 µM | 1.98 µM | 8.66 | 0.979 µM | 2.42 µM | 0.981 µM | 2.25 µM | 1.05 µM | 2.37 µM | 1.58 µM | 4.67 |
| NC(Cc1ccc(O)cc1)C(=O)N/N=C/c1ccc(N(CCCl)CCCl)cc1 (centres undefined) | 38.6 µM | > 100 µM | 5.73 µM | 68.4 | 11.5 µM | > 100 µM | 10.1 µM | > 100 | 3.95 µM | 23.6 µM | 11.7 µM | > 100 µM | 24.6 µM | > 100 µM | 5.58 µM | 55 |
| O=C(N/N=C/c1ccncc1)c1ccc(C(F)(F)F)nc1Nc1cccc(C(F)(F)F)c1 | 0.804 µM | 11.7 µM | 0.913 µM | 12.3 | 1.41 µM | 4.26 µM | 1.78 µM | 10.5 | 2.49 µM | 10.2 µM |  |  | 3.23 µM | 12.4 µM | 2.39 µM | 10.4 |
| O=Cc1c[nH]c2ccc(-c3csc4ccccc34)cc12 | 2.98 µM | > 100 µM | 3.87 µM | > 100 | 3.81 µM | 59.9 µM | 9.15 µM | > 100 | 8.04 µM | > 100 µM | 3.02 µM | > 100 µM | 3.39 µM | > 100 µM | 3.47 µM | > 100 |
| COc1ccc(/C=C/c2ccnc3ccccc23)cc1 |  | 39.6 µM |  | 31 |  | 32.5 µM |  | 37.4 |  | 0.0937 µM |  | 39.7 µM |  | 30.1 µM |  |  |
| O=C1/C(=C\c2ccc([N+](=O)[O-])cc2)CS(=O)(=O)C/C1=C/c1ccc([N+](=O)[O-])cc1 | 0.058 µM | 0.258 µM and 0.638 µM | 0.0309 µM |  | 0.275 µM | 0.841 µM and 2.22 µM | 0.446 µM | 2.95 | 0.605 µM | 0.366 µM and 1.85 µM | 0.194 µM | 0.713 µM and 1.51 µM | 0.25 µM | 1.46 µM | 0.0764 µM | 0.93 |
| O=c1c(-c2ccc3c(c2)OCO3)coc2c(CO)c(O)ccc12 | 2.35 µM | 6.46 µM | 1.28 µM | 3.41 | 2.01 µM | 4.93 µM | 2.48 µM | 14.9 | 2.89 µM | 12 µM | 1.54 µM | 4.03 µM | 3.24 µM | 13.3 µM | 4.42 µM | 30.5 |
| COc1ccc(-c2nnc(Nc3nc(O)c(C4=c5cc(OC(F)(F)F)ccc5=NC4=O)s3)o2)cc1 | 20.4 µM | 80.4 µM | 16.3 µM | 56.1 | 22 µM | 60.7 µM | 69.8 µM | > 100 | 21.9 µM | 54.3 µM | 19.9 µM | 57.5 µM | 3.75 µM | 19.6 µM | 22.7 µM | 99.5 |
| C/C(=C\CCc1ccsc1)CC/C=C(\C)CCCN1CCN(CCO)CC1 | 2.42 µM | 6.31 µM | 1.8 µM | 3.37 | 4.68 µM | 18.9 µM | 2.03 µM | 5.09 | 4.95 µM | 20.5 µM |  |  | 2.38 µM | 5.66 µM | 4.84 µM | 18.4 |
| Cc1ccc(C2NC(=S)N3C(c4ccc(C)cc4)NC(=S)N23)cc1 (centres undefined) | 3.7 µM | 15.3 µM | 8.84 µM | 22.1 | 8.5 µM | 22 µM | 5.24 µM | 19.6 | 12 µM | 28.2 µM | 3.81 µM | 16.9 µM | 4.04 µM | 17.4 µM | 7.36 µM | 25.1 |
| O=C1c2ccccc2-c2c1c1c(O)cccc1n2CCCc1ccccc1 | 4.11 µM | > 100 µM | 43.9 µM | > 100 | 17.1 µM | > 100 µM | 13 µM | > 100 | 7.66 µM | > 100 µM | 16.2 µM | > 100 µM | 4.54 µM | > 100 µM | 31.7 µM | > 100 |
| COc1ccc(C2c3cc4c(c(OC)c3CC3OCC(=O)C32)OCO4)cc1OC (centres undefined) | < 0.01 µM | > 100 µM |  |  |  | > 100 µM |  |  | < 0.01 µM | 48.4 µM | < 0.01 µM | > 100 µM | < 0.01 µM | 0.221 µM and 1.01 µM | < 0.01 µM | 46.9 |
